Assay results from patent US10308643B2, “Heterocyclic compound” (Takeda Pharmaceutical Company Limited, priority 2015, dated 2019).
Counter-ions that a name gives are not always drawn.

How the values were obtained:
Assay type in all cases: biochemical
HDAC6 enzyme = target: T1, HDAC6 enzyme (Homo sapiens, UniProt Q9UBN7); experiment: HDAC1/6 Enzyme Inhibitory Assay (HDAC-Glo I/II Assay kit), HDAC6; conditions: 1 μM test compound, wells without enzyme = 100% inhibition; for inhibition at 1 µM: read-out: HDAC6 inhibitory rate (%) (1 μM)
T1 construct: transducing full length HDAC1 and HDAC6 genes into Sf-9 insect cells; GST; purchased SignalChem; host or cells: Sf-9 insect cells
T1 sequence (Q9UBN7 1-1215): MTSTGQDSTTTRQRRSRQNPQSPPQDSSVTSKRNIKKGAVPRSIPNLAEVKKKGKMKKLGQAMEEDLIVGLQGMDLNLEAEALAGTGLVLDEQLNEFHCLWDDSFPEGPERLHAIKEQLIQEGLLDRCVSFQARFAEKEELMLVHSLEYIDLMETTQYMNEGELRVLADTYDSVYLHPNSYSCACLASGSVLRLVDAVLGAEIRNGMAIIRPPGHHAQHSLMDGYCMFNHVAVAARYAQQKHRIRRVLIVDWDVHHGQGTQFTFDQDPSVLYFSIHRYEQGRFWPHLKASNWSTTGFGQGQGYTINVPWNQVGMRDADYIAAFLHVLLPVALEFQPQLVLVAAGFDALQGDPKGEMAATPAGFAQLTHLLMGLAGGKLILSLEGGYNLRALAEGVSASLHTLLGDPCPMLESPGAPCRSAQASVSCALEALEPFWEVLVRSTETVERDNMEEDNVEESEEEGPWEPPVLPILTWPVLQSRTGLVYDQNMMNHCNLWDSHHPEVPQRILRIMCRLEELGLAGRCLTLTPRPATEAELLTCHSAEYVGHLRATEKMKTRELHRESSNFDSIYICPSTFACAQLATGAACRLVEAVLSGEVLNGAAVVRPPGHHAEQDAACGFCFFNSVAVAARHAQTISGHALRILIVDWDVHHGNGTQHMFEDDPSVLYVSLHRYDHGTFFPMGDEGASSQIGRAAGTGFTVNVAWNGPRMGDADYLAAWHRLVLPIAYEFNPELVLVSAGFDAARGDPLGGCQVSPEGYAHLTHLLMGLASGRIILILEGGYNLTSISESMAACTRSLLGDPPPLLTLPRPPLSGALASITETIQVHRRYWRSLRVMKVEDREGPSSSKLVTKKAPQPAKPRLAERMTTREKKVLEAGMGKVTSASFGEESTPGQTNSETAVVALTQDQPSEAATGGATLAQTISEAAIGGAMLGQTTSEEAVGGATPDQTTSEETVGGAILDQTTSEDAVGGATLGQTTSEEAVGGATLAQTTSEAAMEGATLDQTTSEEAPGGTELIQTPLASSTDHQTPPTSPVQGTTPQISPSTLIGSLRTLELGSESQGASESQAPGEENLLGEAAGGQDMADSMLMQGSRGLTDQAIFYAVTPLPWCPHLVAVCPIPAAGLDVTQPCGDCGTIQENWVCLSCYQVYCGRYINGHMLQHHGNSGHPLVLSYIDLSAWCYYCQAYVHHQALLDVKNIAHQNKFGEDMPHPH
Procedure, shortened: (§1)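 Luminescence readout (HDAC-Glo I/II) after 20 min RT reaction of GST-purified full-length HDAC1 or HDAC6 (Sf-9 expressed) with substrate-developer; enzyme and compound preincubated 60 min RT; buffer 24 mM Tris-HCl pH 7.5, 0.6 mM glutathione, 0.01% Tween-20; no-enzyme wells = 100% inhibition.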

HDAC1 enzyme = target: T2, HDAC1 enzyme (Homo sapiens, UniProt Q13547); experiment: HDAC1/6 Enzyme Inhibitory Assay (HDAC-Glo I/II Assay kit), HDAC1; conditions: 1 μM test compound, wells without enzyme = 100% inhibition; for inhibition at 1 µM: read-out: HDAC1 inhibitory rate (%) (1 μM)
T2 construct: transducing full length HDAC1 and HDAC6 genes into Sf-9 insect cells; GST; purchased SignalChem; host or cells: Sf-9 insect cells
Procedure, shortened: as §1

HDAC9 enzyme = target: T3, HDAC9 enzyme (Homo sapiens, UniProt Q9UKV0); experiment: HDAC9 Enzyme Inhibitory Assay (HDAC-Glo class IIa); conditions: 1 μM test compound, wells without enzyme = 100% inhibition; for inhibition at 1 µM: read-out: HDAC9 inhibitory rate (%) (1 μM)
T3 construct: transducing full length HDAC9 gene into Sf-9 insect cells; made in house; host or cells: Sf-9 insect cells
Procedure, shortened: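 Full-length human HDAC9 from Sf-9 cells, Ni-NTA purified, preincubated with compound for 60 min at room temperature in Tris-HCl pH 7.5 buffer (MgCl2, KCl, NaCl, glutathione, Tween-20). HDAC-Glo class IIa substrate-developer added; luminescence read after 20 min, with no-enzyme wells defining 100% inhibition.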

T2 sequence (Q13547 whole entry): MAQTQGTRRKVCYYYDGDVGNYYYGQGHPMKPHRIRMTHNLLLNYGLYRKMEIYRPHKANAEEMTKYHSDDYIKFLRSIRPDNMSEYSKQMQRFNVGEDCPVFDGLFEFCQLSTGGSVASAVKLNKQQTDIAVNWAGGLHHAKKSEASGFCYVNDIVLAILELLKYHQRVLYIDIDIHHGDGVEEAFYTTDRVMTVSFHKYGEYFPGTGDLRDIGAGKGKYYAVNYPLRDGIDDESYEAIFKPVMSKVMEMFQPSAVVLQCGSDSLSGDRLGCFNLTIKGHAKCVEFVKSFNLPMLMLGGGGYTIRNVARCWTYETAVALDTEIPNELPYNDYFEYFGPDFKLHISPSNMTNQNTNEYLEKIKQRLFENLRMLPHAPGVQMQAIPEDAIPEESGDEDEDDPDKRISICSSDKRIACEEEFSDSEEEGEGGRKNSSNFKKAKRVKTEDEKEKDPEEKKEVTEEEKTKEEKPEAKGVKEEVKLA
T3 sequence (Q9UKV0 whole entry, species assumed): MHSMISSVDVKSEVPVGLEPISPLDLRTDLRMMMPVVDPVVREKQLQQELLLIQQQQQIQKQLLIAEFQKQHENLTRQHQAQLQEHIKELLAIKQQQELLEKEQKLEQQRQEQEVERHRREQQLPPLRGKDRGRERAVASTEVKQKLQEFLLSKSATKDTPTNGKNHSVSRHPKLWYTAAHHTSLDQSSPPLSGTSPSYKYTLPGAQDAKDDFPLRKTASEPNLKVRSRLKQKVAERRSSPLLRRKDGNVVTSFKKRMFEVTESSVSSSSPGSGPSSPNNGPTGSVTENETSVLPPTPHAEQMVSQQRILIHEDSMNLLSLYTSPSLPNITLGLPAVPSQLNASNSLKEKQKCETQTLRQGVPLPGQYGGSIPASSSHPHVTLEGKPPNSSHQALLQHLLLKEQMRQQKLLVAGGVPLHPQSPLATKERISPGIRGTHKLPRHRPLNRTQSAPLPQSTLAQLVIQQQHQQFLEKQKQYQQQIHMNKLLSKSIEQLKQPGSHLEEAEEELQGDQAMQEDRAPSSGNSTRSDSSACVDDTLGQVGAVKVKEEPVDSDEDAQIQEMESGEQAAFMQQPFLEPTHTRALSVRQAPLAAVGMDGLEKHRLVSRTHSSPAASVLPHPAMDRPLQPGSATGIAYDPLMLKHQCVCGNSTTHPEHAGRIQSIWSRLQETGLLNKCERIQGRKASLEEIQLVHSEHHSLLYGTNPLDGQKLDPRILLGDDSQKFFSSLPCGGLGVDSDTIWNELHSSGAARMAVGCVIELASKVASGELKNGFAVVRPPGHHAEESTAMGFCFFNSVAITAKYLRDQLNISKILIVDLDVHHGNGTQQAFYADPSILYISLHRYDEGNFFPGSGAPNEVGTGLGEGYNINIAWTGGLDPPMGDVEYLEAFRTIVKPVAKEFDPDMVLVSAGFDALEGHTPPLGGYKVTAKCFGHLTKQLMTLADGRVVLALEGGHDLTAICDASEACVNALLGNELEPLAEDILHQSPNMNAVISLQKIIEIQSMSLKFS

SMILES | HDAC6 inhibitory rate (%) (1 μM) (HDAC6 enzyme) | HDAC1 inhibitory rate (%) (1 μM) (HDAC1 enzyme) | HDAC9 inhibitory rate (%) (1 μM) (HDAC9 enzyme) | inhibition at 1 µM (HDAC6 enzyme) | inhibition at 1 µM (HDAC9 enzyme) | inhibition at 1 µM (HDAC1 enzyme)
CC(CO)(CCl)C(=O)N[C@@H]1CCCC[C@H]1N1Cc2ccc(-c3noc(C(F)(F)F)n3)cc2C1=O (relative stereo) [Example 204, 3-chloro-2-(hydroxymethyl)-2-methyl-N-(trans-2-(1-oxo-6-(5-(trifluoromethyl)-1,2,4-oxadiazol-3-yl)-1,3-dihydro-2H-isoindol-2-yl)cyclohexyl)propanamide] | 99% | 7% | 71% |  |  | 
O=C(N[C@@H]1CCOC[C@@H]1N1Cc2ccc(-c3noc(C(F)(F)F)n3)cc2C1=O)C1CC1(F)F (single isomer, unassigned) [Example 211, (1R) or (1S)-2,2-difluoro-N-((3R,4R)-3-(1-oxo-6-(5-(trifluoromethyl)-1,2,4-oxadiazol-3-yl)-1,3-dihydro-2H-isoindol-2-yl)tetrahydro-2H-pyran-4-yl)cyclopropanecarboxamide] | 43% | −1% | 33% |  |  | 
O=C(N[C@@H]1CCOC[C@@H]1N1Cc2ccc(-c3noc(C(F)(F)F)n3)cc2C1=O)C1CC1(F)F (single isomer, unassigned) [Example 212, (1R) or (1S)-2,2-difluoro-N-((3R,4R)-3-(1-oxo-6-(5-(trifluoromethyl)-1,2,4-oxadiazol-3-yl)-1,3-dihydro-2H-isoindol-2-yl)tetrahydro-2H-pyran-4-yl)cyclopropanecarboxamide] | 82% | 12% | 58% |  |  | 
O=C(N[C@H]1CCOC[C@H]1N1Cc2ccc(-c3noc(C(F)(F)F)n3)cc2C1=O)C1CC1(F)F (single isomer, unassigned) [Example 213, (1R) or (1S)-2,2-difluoro-N-((3S,4S)-3-(1-oxo-6-(5-(trifluoromethyl)-1,2,4-oxadiazol-3-yl)-1,3-dihydro-2H-isoindol-2-yl)tetrahydro-2H-pyran-4-yl)cyclopropanecarboxamide] |  | 31% |  | 96% | 77% | 
O=C(N[C@H]1CCOC[C@H]1N1Cc2ccc(-c3noc(C(F)(F)F)n3)cc2C1=O)C1CC1(F)F (single isomer, unassigned) [Example 214, (1R) or (1S)-2,2-difluoro-N-((3S,4S)-3-(1-oxo-6-(5-(trifluoromethyl)-1,2,4-oxadiazol-3-yl)-1,3-dihydro-2H-isoindol-2-yl)tetrahydro-2H-pyran-4-yl)cyclopropanecarboxamide] | 98% | 68% | 97% |  |  | 
O=C1c2cc(-c3noc(C(F)(F)F)n3)ccc2CN1C1CCNC[C@@H]1c1ccc(Cl)cc1 (stereo in doubt) [Example 51, 2-(trans-3-(4-chlorophenyl)piperidin-4-yl)-6-(5-(trifluoromethyl)-1,2,4-oxadiazol-3-yl)isoindolin-1-one] |  |  |  | 98% | 99% | 94%
O=C1c2cc(-c3noc(C(F)(F)F)n3)ccc2CN1C1CCNC[C@@H]1c1cc(Cl)cc(Cl)c1 (stereo in doubt) [Example 58, 2-(trans-3-(3,5-dichlorophenyl)piperidin-4-yl)-6-(5-(trifluoromethyl)-1,2,4-oxadiazol-3-yl)isoindolin-1-one] |  |  |  | 98% | 99% | 99%
O=C1CC(C(=O)N[C@@H]2CCCCC2N2Cc3ccc(-c4noc(C(F)(F)F)n4)cc3C2=O)CN1 (stereo in doubt) [Example 131, (3R)-5-oxo-N-((1R,2R)-2-(1-oxo-6-(5-(trifluoromethyl)-1,2,4-oxadiazol-3-yl)-1,3-dihydro-2H-isoindol-2-yl)cyclohexyl)pyrrolidine-3-carboxamide] |  |  |  | 88% | 31% | 0%
CC(C)(C)OC(=O)N1CC[C@@H](N2Cc3ccc(-c4noc(C(F)(F)F)n4)cc3C2=O)[C@H](c2ccccc2)C1 [Example 13, tert-butyl (3R,4R)-4-(1-oxo-6-(5-(trifluoromethyl)-1,2,4-oxadiazol-3-yl)-1,3-dihydro-2H-isoindol-2-yl)-3-phenylpiperidine-1-carboxylate] |  |  |  | 101% | 84% | 53%
CC(C)(C)OC(=O)N1CC[C@H](N2Cc3ccc(-c4noc(C(F)(F)F)n4)cc3C2=O)[C@H](c2ccccc2)C1 [Example 14, tert-butyl (3R,4S)-4-(1-oxo-6-(5-(trifluoromethyl)-1,2,4-oxadiazol-3-yl)-1,3-dihydro-2H-isoindol-2-yl)-3-phenylpiperidine-1-carboxylate] |  |  |  | 68% | 48% | 0%
O=C1c2cc(-c3noc(C(F)(F)F)n3)ccc2CN1[C@@H]1CCNC[C@H]1c1ccccc1 [Example 15, 2-((3R,4R)-3-phenylpiperidin-4-yl)-6-(5-(trifluoromethyl)-1,2,4-oxadiazol-3-yl)isoindolin-1-one] |  |  |  | 98% | 99% | 97%
O=C1c2cc(-c3noc(C(F)(F)F)n3)ccc2CN1[C@H]1CCNC[C@H]1c1ccccc1 [Example 16, 2-((3R,4S)-3-phenylpiperidin-4-yl)-6-(5-(trifluoromethyl)-1,2,4-oxadiazol-3-yl)isoindolin-1-one] |  |  |  | 98% | 87% | 49%
CC(C)(C)OC(=O)N1CC[C@@H](N2Cc3ccc(-c4noc(C(F)(F)F)n4)cc3C2=O)[C@@H](c2ccccc2)C1 [Example 19, tert-butyl (3S,4R)-4-(1-oxo-6-(5-(trifluoromethyl)-1,2,4-oxadiazol-3-yl)-1,3-dihydro-2H-isoindol-2-yl)-3-phenylpiperidine-1-carboxylate] |  |  |  | 99% | 48% | 18%
CC(=O)N1CC[C@@H](N2Cc3ccc(-c4noc(C(F)(F)F)n4)cc3C2=O)[C@H](c2ccccc2)C1 [Example 20, 2-((3R,4R)-1-acetyl-3-phenylpiperidin-4-yl)-6-(5-(trifluoromethyl)-1,2,4-oxadiazol-3-yl)isoindolin-1-one] |  |  |  | 98% | 96% | 87%
CC(=O)N1CC[C@H](N2Cc3ccc(-c4noc(C(F)(F)F)n4)cc3C2=O)[C@H](c2ccccc2)C1 [Example 21, 2-((3R,4S)-1-acetyl-3-phenylpiperidin-4-yl)-6-(5-(trifluoromethyl)-1,2,4-oxadiazol-3-yl)isoindolin-1-one] |  |  |  | 93% | 80% | 8%
O=C1c2cc(-c3noc(C(F)(F)F)n3)ccc2CN1C1CCNC[C@@H]1c1ccccc1 (stereo partly drawn) [Example 22, 2-((3S,4R)-3-phenyipiperidin-4-yl)-6-(5-(trifluoromethyl)-1,2,4-oxadiazol-3-yl)isoindolin-1-one, hydrochloride] |  |  |  | 100% | 96% | 85%
CC(=O)N1CC[C@@H](N2Cc3ccc(-c4noc(C(F)(F)F)n4)cc3C2=O)[C@@H](c2ccccc2)C1 [Example 23, 2-((3S,4R)-1-acetyl-3-phenylpiperidin-4-yl)-6-(5-(trifluoromethyl)-1,2,4-oxadiazol-3-yl)isoindolin-1-one] |  |  |  | 98% | 84% | 58%
